{"source": "patent US20200354348A1", "about": "“SEMISYNTHETIC AURONES AND METHODS OF USE THEREOF” (University of Kentucky Research Foundation, priority 2018, published 2020)", "note": "Structures can show the parent of a compound that is named as a salt.", "data": [{"units": {"melting point": "°C"}, "values": [{"smiles": "CCN(CC)c1ccc(/C=C2\\Oc3cc(OCc4cc(F)ccc4F)ccc3C2=O)c(OC)c1", "note": "[Aurone 4t, (2Z)-6-[(2,5-Difluorobenzyl)oxy]-2-[4-(diethylamino)-2-methoxybenzylidene]-1-benzofuran-3(2H)-one]", "melting point": "184 to 186"}, {"smiles": "Cc1c(O)ccc2c1O/C(=C\\c1cn(C)c3ccccc13)C2=O", "note": "[Aurone 3n, (2Z)-6-Hydroxy-7-methyl-2-[(1-methyl-1H-indol-3-yl)methylene]-1-benzofuran-3(2H)-one]", "melting point": "293 to 295"}, {"smiles": "CCn1cc(/C=C2\\Oc3cc(OCc4c(Cl)cccc4Cl)ccc3C2=O)c2cc(OC)ccc21", "note": "[Aurone 4o, (2Z)-6-[(2,6-Dichlorobenzyl)oxy]-2-[(1-ethyl-5-methoxy-1H-indol-3-yl)methylene]-1-benzofuran-3(2H)-one]", "melting point": "211 to 213"}, {"smiles": "COc1ccc2c(c1)c(/C=C1\\Oc3cc(OCc4c(Cl)cccc4Cl)ccc3C1=O)cn2C", "note": "[Aurone 4l, (2Z)-6-[(2,6-Dichlorobenzyl)oxy]-2-[(5-methoxy-1-methyl-1H-indol-3-yl)methylene]-1-benzofuran-3(2H)-one]", "melting point": "233 to 235"}, {"smiles": "COc1cccc2ccc(/C=C3\\Oc4cc(O)ccc4C3=O)nc12", "note": "[Aurone 3g, (2Z)-6-Hydroxy-2-[(8-methoxyquinolin-2-yl)methylene]-1-benzofuran-3(2H)-one]", "melting point": "250 to 252"}, {"smiles": "O=C1/C(=C/c2ccc(N3CCCC3)cc2)Oc2cc(O)ccc21", "note": "[Aurone 2a, (2Z)-6-Hydroxy-2-(4-pyrrolidin-1-ylbenzylidene)-1-benzofuran-3(2H)-one]", "melting point": "> 220"}, {"smiles": "CN(C)c1ccc(/C=C2\\Oc3cc(OCc4ccccc4Cl)ccc3C2=O)c(Cl)c1", "note": "[Aurone 4s, (2Z)-6-[(2-Chlorobenzyl)oxy]-2-[2-chloro-4-(dimethylamino)benzylidene]-1-benzofuran-3(2H)-one]", "melting point": "> 220"}, {"smiles": "O=C1/C(=C/c2ccc(N3CCSCC3)cc2)Oc2cc(O)ccc21", "note": "[Aurone 2d, (2Z)-6-Hydroxy-2-[(4-thiomorpholin-4-ylbenzylidene)]-1-benzofuran-3(2H)-one]", "melting point": "> 220"}, {"smiles": "O=C1/C(=C/c2ccc(N3CCOCC3)cc2)Oc2cc(O)ccc21", "note": "[Aurone 2b, (2Z)-6-Hydroxy-2-(4-morpholin-4-ylbenzylidene)-1-benzofuran-3(2H)-one]", "melting point": "> 220"}, {"smiles": "Cn1cc(/C=C2\\Oc3cc(OCc4c(F)cccc4F)ccc3C2=O)c2ccccc21", "note": "[Aurone 4f, (2Z)-6-[(2,6-Difluorobenzyl)oxy]-2-[(1-methyl-1H-indol-3-yl)methylene]-1-benzofuran-3(2H)-one]", "melting point": "> 220"}, {"smiles": "O=C1/C(=C/c2nccc3ccccc23)Oc2cc(O)ccc21", "note": "[Aurone 3d, (2Z)-6-Hydroxy-2-(isoquinolin-1-ylmethylene)-1-benzofuran-3(2H)-one]", "melting point": "> 220"}, {"smiles": "COc1ccc2c(c1)c(/C=C1\\Oc3cc(OCc4c(F)cccc4Cl)ccc3C1=O)cn2C", "note": "[Aurone 4k, (2Z)-6-[(2-Chloro-6-fluorobenzyl)oxy]-2-[(5-methoxy-1-methyl-1H-indol-3-yl)methylene]-1-benzofuran-3(2H)-one]", "melting point": "200 to 202"}, {"smiles": "Cn1cc(/C=C2\\Oc3cc(OCc4c(F)cccc4Cl)ccc3C2=O)c2ccccc21", "note": "[Aurone 4h, (2Z)-6-[(2-Chloro-6-fluorobenzyl)oxy]-2-[(1-methyl-1H-indol-3-yl)methylene]-1-benzofuran-3(2H)-one]", "melting point": "225 to 227"}, {"smiles": "COc1ccc2c(c1)c(/C=C1\\Oc3c(ccc(O)c3C)C1=O)cn2C", "note": "[Aurone 3o, (2Z)-6-Hydroxy-2-[(5-methoxy-1-methyl-1H-indol-3-yl)methylene]-7-methyl-1-benzofuran-3(2H)-one]", "melting point": "297 to 299"}, {"smiles": "Cn1cc(/C=C2\\Oc3cc(OCc4ccccc4Cl)ccc3C2=O)c2ccccc21", "note": "[Aurone 4e, (2Z)-6-[(2-Chlorobenzyl)oxy]-2-[(1-methyl-1H-indol-3-yl)methylene]-1-benzofuran-3(2H)-one]", "melting point": "206 to 208"}, {"smiles": "CN1CCN(c2ccc(/C=C3\\Oc4cc(O)ccc4C3=O)cc2)CC1", "note": "(as salt: hydrochloride)", "melting point": "> 220"}, {"smiles": "CN(C)c1ccc(/C=C2\\Oc3cc(O)ccc3C2=O)c(Cl)c1", "note": "[Aurone 2e, (2Z)-2-[2-Chloro-4-(dimethylamino)benzylidene]-6-hydroxy-1-benzofuran-3(2H)-one]", "melting point": "> 220"}]}]}
